From article PMC9499525, “Tissue-restricted inhibition of mTOR using chemical genetics” (Proceedings of the National Academy of Sciences of the …, 2022)

How the values were obtained:
[1] = target: T1, FKBP12 V55G-HA / GST-mTOR FRB domain ternary complex (Homo sapiens, UniProt P42345+P62942, V56G); assay: TR-FRET ternary complex formation, FKBP12 V55G with mTOR FRB; assay type: binding; settings: FKBP12 V55G + mTOR FRB, n = 3, read-out: EC50 of ternary complex induction, FKBP12 V55G
T1 construct: recombinant HA-tagged wild-type or V55G mutant FKBP12 with GST-tagged mTOR FRB domain; 8xHis (cleaved yes); made in house; host or cells: E. coli BL21 (DE3) for FKBP12
T1 sequence (P62942 whole entry V56G, the tested form may be a part): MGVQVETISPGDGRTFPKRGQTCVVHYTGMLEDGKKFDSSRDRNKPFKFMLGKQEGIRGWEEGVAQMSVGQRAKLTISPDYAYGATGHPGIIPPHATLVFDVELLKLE
T1 sequence (P42345 2012-2144 limits assumed): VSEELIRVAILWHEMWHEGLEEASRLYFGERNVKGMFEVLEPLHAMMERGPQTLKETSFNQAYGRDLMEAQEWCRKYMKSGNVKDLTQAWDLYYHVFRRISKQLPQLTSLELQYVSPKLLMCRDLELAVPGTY
Protocol: TR-FRET assay was performed using recommended conditions from Cisbio with slight modifications. FKBP12-HA, FKBP12 V55G-HA, and GST-mTORFRB recombinant proteins were each diluted to 5 nM in assay buffer (20 mM HEPES pH 7.5, 150 mM NaCl, 0.05% Tween-20, 0.1% bovine serum albumin [BSA], 0.5 mM dithiothreitol [DTT]). Anti-GST-Tb (Cisbio) and Anti-HA-XL665 (Cisbio) were diluted to 0.625 µg/mL and 5 µg/mL, respectively, in assay buffer. Rapa* compounds and FK506 were diluted to 50 µM and rapamycin to 5 µM in assay buffer containing 5% DMSO, and threefold serial dilution series were made from these solutions. We mixed 4 µL diluted FKBP12-HA protein, 4 µL diluted GST-mTORFRB, and 4 µL of compound or DMSO control in a well of a black low-volume 384-well plate (Corning 4514), and the mixture was incubated at room temperature for 1 h. We then added 4 µL of Anti-GST-Tb, and 4 µL Anti-HA-XL665, and the mixture was incubated at room temperature for an additional 1 h. Time-resolved fluorescence was read on a Tecan Spark 20M plate reader with the following parameters: Lag time: 60 µs; Integration time: 500 µs; Read A: Excitation filter 320 ([25]) nm, Emission filter 610 ([25]) nm, Gain 130; Read B: Excitation filter 320 ([25]) nm, Emission filter 665 ([8]) nm, Gain 165. Three replicates were performed for each assay condition. […]
Human FKBP12 coding sequence was cloned a pET-47b bacterial expression vector using Gibson assembly and a C-terminal HA-tag was added by QuickChange PCR. FKBP12 proteins were expressed as 8xHis fusions in E. coli BL21 (DE3) cells. […] Samples were then purified by size exclusion chromatography, concentrated to 10-20 mg/mL, and snap frozen in liquid nitrogen. pGEX-2T FRB was a gift from Jie Chen (Addgene plasmid #26607). mTOR FRB was expressed as a GST-fusion and purified as previously described (1). […]
PAMPA was performed by Quintara Discovery as described previously (2). Compounds were analyzed at 100 µM in PBS and measured using liquid chromatography-mass spectrometry (LC-MS) after 5 hours. […] Compounds were analyzed at 10 µM and measured by LC-MS after 1 hour.

[2] = system: Drosophila larvae (w1118 control and FKBP12 V55G transgenic); assay: Drosophila larval development (pupae 9 d after egg laying); assay type: in vivo
Protocol: All Drosophila stocks and crosses were maintained on standard cornmeal-molasses food at 25 °C using a 12-h light/dark cycle. To generate UAS-FKBP12 V55G-HA transgenic lines, human FKBP12 V55G-HA ORF was cloned into a pUAST-attB vector between EcoR-I and Xho-I restriction sites. This construct was then integrated into an attB site using phiC31 integrase with the assistance of Rainbow Transgenic Flies, Inc. The driver stocks da-GAL4 (ubiquitous), elav-GAL4 and nSyb-GAL4 (neuronal-specific), Mef2-GAL4 and mhc-GAL4 (musculature), and 2–286-GAL4 and phm-GAL4 (ring-gland-specific) were obtained from Bloomington Drosophila Stock Center. The crossing schemes used in this study are depicted in SI Appendix, Fig. S11. For rapamycin or Rapa*3Z related experiments, fly food was prepared freshly 24 h before each experiment.
Fly food containing ethanol vehicle was used as control. […] Three biological replicates were used for each experiment. Data were analyzed using Prism 9.0 (GraphPad).

[3] = system: Flp-In 293 cells with and without FKBP12 V55G-HA; assay: Cell growth by CellTiter-Glo in Flp-In 293 cells; assay type: cell-based, human; settings: 72 h treatment
Protocol: All cell lines were maintained in DMEM (Gibco) supplemented with 10% heat-inactivated FBS (Axenia Biologix) at 37 °C in 5% CO2. Flp-In T-REx 293 cells were obtained from Thermo Fisher supplemented with 15 µg/mL blasticin and 100 µg/mL Zeocin. […] When indicated, cells were treated with drugs at 60–80% confluency at a final DMSO concentration of 0.1%.
Cells were seeded into 96-well tissue-culture treated plates (Greiner) and were allowed to incubate for 24 h. Cells were treated with indicated compounds and incubated for 72 h (100 µL final well volume, 0.1% DMSO). Cell viability was assessed by CellTiter-Glo (Promega). Assay reagent was diluted 1:4 in PBS containing 1% Triton X-100, and 100 µL was added to each well and mixed on a plate shaker for 20 min. Luminescence was measured on a Tecan Spark 20M.

Q: For `CCO/N=C1/C[C@@H]([C@H](C)C[C@@H]2CC[C@@H](O)[C@H](OC)C2)OC(=O)[C@@H]2CCCCN2C(=O)C(=O)[C@]2(O)O[C@@H](CC[C@H]2C)C[C@H](OC)/C(C)=C/C=C/C=C/[C@@H](C)C[C@@H](C)C(=O)[C@H](OC)[C@H](O)/C(C)=C/[C@H]1C` [Rapa*-3Z], which EC50 [1] is on record?
A: 11.8 nM

Q: What about the “Larval-to-pupal transition, FKBP12 V55G in ring gland (independent driver)” value ([2]; 2-286-GAL4, 100 µM, 9 d) of the same compound?
A: nearly eliminated the larval-to-pupal transition

Q: What about the “Dose necessary for complete inhibition of larval development” value ([2]; FKBP12 V55G animals (ubiquitous da-GAL4), in food, 9 d after egg laying) of the same compound?
A: 100 µM

Q: What about the “Larval-to-pupal transition, FKBP12 V55G in musculature and nervous system (independent drivers)” value ([2]; Mef2-GAL4 and elav-GAL4, 100 µM, 9 d) of the same compound?
A: significant, but lesser, inhibition

Q: And the “Effect on larval development, ubiquitous FKBP12 V55G expression” value ([2]; da-GAL4 > FKBP12 V55G, 100 µM)?
A: potently inhibited larval development

Q: What about the “Pupal formation, FKBP12 V55G in musculature and nervous system” value ([2]; mhc-GAL4 and nSyb-GAL4, 100 µM, 9 d after egg laying) of the same compound?
A: similar, but less severe, inhibition of pupal formation

Q: What about the “Pupal formation, FKBP12 V55G in ring gland” value ([2]; phm-GAL4, 100 µM, 9 d after egg laying) of the same compound?
A: failed to pupate

Q: What about the “Effect on larval development in control flies at 300 and 400 µM” value ([2]; w1118, 300 and 400 µM, 14 days after egg laying) of the same compound?
A: no influence on larval development

Q: What about the “Effect on larval development in wild-type animals” value ([2]; wild-type (w1118) larvae, compound in food) of the same compound?
A: no effect

Q: What about the “Cell growth inhibition, 293 cells with and without FKBP12 V55G” value [3] of the same compound?
A: selectively inhibited growth of mutant-expressing 293 cells
